According to ChEMBL document CHEMBL1201862, “PubChem BioAssay data set” (2004):
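Protocol summary: plate cells (96-well), add compound at 5 concentrations, incubate 48 h, interpolate endpoints linearly. At the GI50, growth is halved.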 Activity calls are given as the source filed them. Cut-off read from the data, not from the text of the source: active = GI50 up to about 1.1 µM and inactive = higher.

What was measured:
Test in all cases: NCI-60 cell line screen, 48 h
NCI-H23 = tested on: NCI-H23
SK-MEL-5 = tested on: SK-MEL-5
NCI-H226 = tested on: NCI-H226
CCRF-CEM = tested on: CCRF-CEM
786-0 = tested on: 786-0
MOLT-4 = tested on: MOLT-4
UO-31 = tested on: UO-31
UACC-62 = tested on: UACC-62
CAKI-1 = tested on: CAKI-1
COLO 205 = tested on: COLO 205
SF-539 = tested on: SF-539
K562 = tested on: K562
IGROV-1 = tested on: IGROV-1
HCC 2998 = tested on: HCC 2998
HOP-62 = tested on: HOP-62
LOX IMVI = tested on: LOX IMVI
M19-MEL = tested on: M19-MEL
M14 = tested on: M14
OVCAR-8 = tested on: OVCAR-8

Compound | GI50 (NCI-H23) | GI50 (SK-MEL-5) | GI50 (NCI-H226) | GI50 (CCRF-CEM) | GI50 (786-0) | GI50 (MOLT-4) | GI50 (UO-31) | GI50 (UACC-62) | GI50 (CAKI-1) | GI50 (COLO 205) | GI50 (SF-539) | GI50 (K562) | GI50 (IGROV-1) | GI50 (HCC 2998) | GI50 (HOP-62) | GI50 (LOX IMVI) | GI50 (M19-MEL) | GI50 (M14) | GI50 (OVCAR-8)
CC(=O)OCC1OC(OC2CC3C(C)(C)C(OC(C)=O)CC[C@]3(C)C3CCC45CC4(CC[C@H]5C(C)CC(O)C4OC4(C)C)[C@]23C)C(O)C(O)C1O (stereo partly drawn) | 2.86 µM (inactive) | 2.69 µM (inactive) | 5.06 µM (inactive) | 1.04 µM (active) | 2.7 µM (inactive) | 0.189 µM (active) | 3.68 µM (inactive) | 1.99 µM (inactive) | 4.32 µM (inactive) | 1.01 µM (active) | 3.89 µM (inactive) | 1.13 µM (inactive) | 0.0715 µM (active) | 1.37 µM (inactive) | 5.56 µM (inactive) | 1.63 µM (inactive) | 1.93 µM (inactive) | 2.03 µM (inactive) | 2.2 µM (inactive)
C=CCn1c(=S)sc2c(C(=O)OCC)c3c(C)cc(C)cn3c2c1=O | > 100 µM (inactive) | > 100 µM (inactive) | > 100 µM (inactive) | > 100 µM (inactive) | 61.1 µM (inactive) | > 100 µM (inactive) | > 100 µM (inactive) | > 100 µM (inactive) | > 100 µM (inactive) | > 100 µM (inactive) | 80.5 µM (inactive) | > 100 µM (inactive) | > 100 µM (inactive) | > 100 µM (inactive) | > 100 µM (inactive) | > 100 µM (inactive) | > 100 µM (inactive) | > 100 µM (inactive) | > 100 µM (inactive)
O=[N+]([O-])c1ccc(-c2ccc(/C=N/n3c(S)nnc3-c3ccc(Cl)cc3)o2)cc1 | 27.2 µM (inactive) | 20.5 µM (inactive) | > 38.6 µM (inactive) | 37.2 µM (inactive) | 19.2 µM (inactive) | 15 µM (inactive) | > 24.2 µM (inactive) | 27.4 µM (inactive) | > 39 µM (inactive) | 32.1 µM (inactive) | > 40.2 µM (inactive) | 19.2 µM (inactive) | > 81.3 µM (inactive) | > 72.4 µM (inactive) | 17.5 µM (inactive) | 47.5 µM (inactive) | 21.1 µM (inactive) | 16.1 µM (inactive) | > 50 µM (inactive)
[O-]c1c2cc(-[n+]3c(-c4ccccc4)cc(-c4ccccc4)cc3-c3ccccc3)cc1COCCOCCOCCOCCOC2 | 41.9 µM (inactive) |  | > 100 µM (inactive) | 43.6 µM (inactive) | 54.5 µM (inactive) | 32.1 µM (inactive) | 85.3 µM (inactive) | 19.5 µM (inactive) | > 100 µM (inactive) | 18.7 µM (inactive) | 33 µM (inactive) | 34 µM (inactive) |  | 41.7 µM (inactive) | 37 µM (inactive) | 43 µM (inactive) | 30.8 µM (inactive) | 37.4 µM (inactive) | 31.5 µM (inactive)
Cc1cc(N(CCC#N)CCC#N)ccc1/C=C/C(=O)Nc1cccc(Cl)c1 | > 100 µM (inactive) | > 100 µM (inactive) | > 100 µM (inactive) | 85.7 µM (inactive) | > 100 µM (inactive) | > 100 µM (inactive) | 27.6 µM (inactive) | 46.9 µM (inactive) | > 100 µM (inactive) | > 100 µM (inactive) | > 100 µM (inactive) | 32.3 µM (inactive) | > 100 µM (inactive) | > 100 µM (inactive) | > 100 µM (inactive) | 52.2 µM (inactive) | > 100 µM (inactive) | > 100 µM (inactive) | > 100 µM (inactive)
CN(C)CCCN1N=Nc2cccc3cccc1c23 | > 100 µM (inactive) | > 84.9 µM (inactive) | > 100 µM (inactive) | 27.9 µM (inactive) | 17.9 µM (inactive) | 29 µM (inactive) | > 64.6 µM (inactive) | > 100 µM (inactive) | > 71.3 µM (inactive) | 34.6 µM (inactive) | > 60.7 µM (inactive) | 26.7 µM (inactive) | > 100 µM (inactive) | > 59 µM (inactive) | > 100 µM (inactive) | 41.9 µM (inactive) | > 51.4 µM (inactive) | > 43.4 µM (inactive) | > 77.3 µM (inactive)
CCCCCCCCCCCCCCCCP(=O)(OC)OC | 16.5 µM (inactive) | 16.4 µM (inactive) | 17.1 µM (inactive) | 22.3 µM (inactive) | 17.6 µM (inactive) | 16.5 µM (inactive) | 11.7 µM (inactive) | 14.6 µM (inactive) | 16.6 µM (inactive) | 17 µM (inactive) | 20.6 µM (inactive) | 22.5 µM (inactive) | 16.7 µM (inactive) | 15.4 µM (inactive) | 12 µM (inactive) | 16.9 µM (inactive) | 16.4 µM (inactive) | 16.3 µM (inactive) | 15.8 µM (inactive)
CCOC(=O)C(=O)Nc1c(F)cc(F)cc1Br | > 100 µM (inactive) | > 100 µM (inactive) | > 100 µM (inactive) | > 100 µM (inactive) | > 100 µM (inactive) | > 100 µM (inactive) | > 100 µM (inactive) | > 100 µM (inactive) | > 100 µM (inactive) | > 100 µM (inactive) | > 100 µM (inactive) | > 100 µM (inactive) | > 100 µM (inactive) | > 100 µM (inactive) | > 100 µM (inactive) | > 100 µM (inactive) | > 100 µM (inactive) | > 100 µM (inactive) | > 100 µM (inactive)
COc1ccccc1NC(=O)C(CC(C(=O)Nc1ccccc1OC)/C(C)=N/NC(=O)c1ccccc1O)/C(C)=N/NC(=O)c1ccccc1O (stereo not drawn) | > 100 µM (inactive) | 47 µM (inactive) | 60.3 µM (inactive) | 33 µM (inactive) | > 100 µM (inactive) | 47.5 µM (inactive) | 40.4 µM (inactive) |  | 67 µM (inactive) | > 100 µM (inactive) | 54.2 µM (inactive) | > 100 µM (inactive) | > 100 µM (inactive) | > 100 µM (inactive) | > 100 µM (inactive) | > 100 µM (inactive) | > 100 µM (inactive) | > 100 µM (inactive) | 75 µM (inactive)
CC1(C)CC[C@]2(C(=O)O)CCC3(C)C(=CCC4[C@@]5(C)CC[C@H](OC6OCC(O)C(O)C6OC6OC(CO)C(O)C(O)C6O)C(C)(C)C5CC[C@]43C)C2C1 (stereo partly drawn) | 2.11 µM (inactive) | 3.98 µM (inactive) | 1.55 µM (inactive) |  | 2.04 µM (inactive) | 2.98 µM (inactive) | 2.16 µM (inactive) | 1.83 µM (inactive) | 1.66 µM (inactive) | 1.89 µM (inactive) | 2.22 µM (inactive) |  | 2.67 µM (inactive) | 1.71 µM (inactive) | 2.09 µM (inactive) | 1.95 µM (inactive) | 1.83 µM (inactive) | 1.87 µM (inactive) | 1.95 µM (inactive)
CCCCCCn1c(SCC)c2ccccc2c1-c1nc(F)nc(F)n1 | > 100 µM (inactive) | > 100 µM (inactive) | > 100 µM (inactive) | 36 µM (inactive) | > 100 µM (inactive) | > 100 µM (inactive) | > 100 µM (inactive) |  | > 100 µM (inactive) | > 100 µM (inactive) | > 100 µM (inactive) | > 100 µM (inactive) | > 100 µM (inactive) | > 100 µM (inactive) | > 100 µM (inactive) | > 100 µM (inactive) | > 100 µM (inactive) | > 100 µM (inactive) | > 100 µM (inactive)
